Data taken from patent publication US12398141B2 (SHANGHAI SYNERGY PHARMACEUTICAL SCIENCES CO., LTD, priority 2019, dated 2025).

Legend:
[1] = system: Blast T cell; assay: Cell proliferation test of IL-2 stimulated Blast T cell; assay type: cell-based; conditions: Homo sapiens; IL-2 stimulated Blast T cell proliferation, 72 hours
[2] = system: TF-1 cell; assay: TF-1 cell proliferation test; assay type: cell-based; conditions: Homo sapiens, 72 h
[3] = system: male ICR mice; assay: Carrageenan-induced paw swelling in mice; assay type: in vivo; conditions: 10 mg/kg intragastric; for Paw swelling_0.5 h (%): 0.5 h; for Paw swelling rate_1 h (%): 1 h; for Paw swelling rate_2 h (%): 2 h
Method: The inhibiting effects of compounds H01, H07, H11, H12, H14, H15, H22, H25, H29, H30, H33, H39 and H44 on paw swelling in mice were determined after intragastric administration by using male ICR mice (ShanghaiSippr-BK laboratory animal Co. Ltd.), aged 8 weeks and weighing 22-24 g as test animals. The anti-inflammatory pharmacodynamics characteristic of the compounds of the invention was discussed.
A certain amount of compounds were taken and dissolved in 4% Tween 80/0.5% hydroxy propyl methyl cellulose solution. A volume of intragastric administration in mice was 10 ml/kg.
Mice were given 10 mg/kg compounds H01, H07, H11, H12, H14, H15, H22, H25, H29, H30, H33, H39, and H44 and the positive drug indomethacin (Diamond Reagent Co., Ltd., China) by intragastric administration at the dosages shown in the table below and 20 μL 1% (W/V) carrageenan was injected subcutaneously into the plantar 0.5 h later. A paw volume was measured with a paw swelling meter before and at different time points after modeling (0.5 h, 1 h and 2 h). According to the formula: paw swelling rate=(paw volume after administration−basic paw volume)/basic paw volume×100, the inhibiting effect of the compounds on paw volume was calculated. The basic paw volume was a paw volume before administration.

[4] = Pharmacokinetic test after intragastric administration; assay type: in vivo; conditions: Sprague-Dawley, mouse, plasma, po, SD mice, 5 mg/kg intragastric; for AUC(0-t): read-out: Area under the curve (AUC0-24, ng/ml · h); for Cmax: read-out: Plasma concentration (Cmax, ng/ml); for half-life: read-out: half life (T1/2, h) (converted)
Method: Drug concentrations of compounds H01, H07, H11, H12, H14, H15, H22, H25, H29, H30, H33, H39 and H44 intragastrically administrated in plasma by using LC/MS/MS method at various time points were determined by using Sprague-Dawley (SD) […], aged 7-8 weeks and weighing […] as test animals. Pharmacokinetic behavior of the compounds of the invention in […] was studied and its pharmacokinetic characteristics were evaluated.
A certain amount of compounds was taken and dissolved in 50% PEG400/water to prepare a uniform solution.
Mice were administered intragastrically with the above compounds with a dosage of 5 mg/kg. Blood (0.2 ml) was taken from orbits before administration and 0.083 h, 0.25 h, 0.5 h, 1.0 h, 2.0 h, 4.0 h, 6.0 h, 8.0 h, 12.0 h and 24.0 h after administration. The blood was placed in anticoagulant tubes containing dipotassium ethylene glycol diethyl ether diamine tetraacetic acid, centrifugated at 6000 rpm at 4° C. for 10 minutes to separate plasma and saved at −80° C.
50 μL plasma at various time was taken and 150 μL acetonitrile solution containing internal standard tolbutamide (Sigma, USA) was added, mixed and stirred for 5 minutes. After centrifugation for 5 minutes at 12,000 rpm, 100 μL supernatant was taken, mixed with 200 μL water, following by sample injection and analysis.
Liquid chromatogram system was LC-20AD UFLC High Performance Liquid Chromatography system. Mass spectrum system was AB Sciex API4000 triple quadrupole mass spectrometer equipped with Electron Spray Ionization (ESI) (Applied Biosystems, Canada). A software for controlling liquid chromatography-mass spectrometry and quantitative analysis was Anna Rust 1.6 (Applied Biosystems, Canada). Pharmacokinetic parameters were analyzed by WinNonlin (version 5.2, Pharsight, Mountain View, […]) non-compartment model.
The test compound was dissolved in dimethyl sulfoxide to prepare a stock solution with a concentration of 1 mg/mL. The solution was diluted with 50% acetonitrile to obtain a series of standard working solutions with concentrations of 10 μg/mL, 3 μg/mL, 1 μg/mL, 0.3 μg/mL, 0.1 μg/mL, 0.03 μg/mL and 0.01 μg/mL, and a series of standard quality control solutions with concentrations of 8 μg/mL, 0.5 μg/mL, 0.03 μg/mL. 5 μL standard solution was mixed with 45 μL blank plasma substrate uniformly to obtain standard solutions of each concentration of a standard curve (1000 ng/mL, 500 ng/mL, 200 ng/mL, 100 ng/mL, 10 ng/mL, 5 ng/mL, 2 and 1 ng/mL) and quality control solutions (plasma samples: 800 ng/mL, 50 and 3 ng/mL).
Internal standard tolbutamide solid powder was dissolved in dimethyl sulfoxide to prepare a 1 mg/mL stock solution. The stock solution was diluted with 100% acetonitrile to obtain 200 ng/mL solution as a protein precipitation solution.

SMILES	IC50 [1] [µM]	IC50 [2] [µM]	Paw swelling_0.5 h (%) [3] [%]	Paw swelling rate_1 h (%) [3] [%]	Paw swelling rate_2 h (%) [3] [%]	AUC(0-t) [4] [ng·h/mL]	Cmax [4] [ng/mL]	half-life [4] [h]
N#Cc1cnc2[nH]ccc2c1N[C@H]1C[C@@H](NS(=O)(=O)CCC(F)(F)F)C1 [Compound H12, (cis)-4-{[3-(3,3,3-trifluoropropanesulfonamido)-cyclobutyl-1-yl]-amino}-1H-pyrrolo[2,3-b]pyridin-5-carbonitrile]	0.011	1.67	38.45 ± 4.37	45.64 ± 3.58	41.66 ± 5.38	1020 ± 266	644 ± 82	4.23 ± 0.47
CN(C)c1nsc(NC(=O)N2C[C@H]3C[C@H](N(C)c4c(C#N)cnc5[nH]ccc45)C[C@H]3C2)n1 [Compound H33, (3aR,5s,6aS)-4-({2-[(3-dimethylamino-1,2,4-thiadiazole-5-yl)carbamoyl]-hexahydrocyclopenta[c]pyrrole-5-yl}-methyl-amino)-1H-pyrrolo[2,3-b]pyridin-5-carbonitrile]	0.023	1.1	30.78 ± 2.62	31.76 ± 1.86	41.75 ± 5.67	1820 ± 173	440 ± 89	8.64 ± 0.23
N#Cc1cnc2[nH]ccc2c1N1CC2CN(C(=O)NCC(F)(F)F)CC21 (stereo not shown) [Compound H39, 6-(5-cyano-1H-pyrrolo[2,3-b]pyridin-4-yl)-N-(2,2,2-trifluoroethyl)-3,6-diazabicyclo[3.2.0]heptane-3-carboxamide]	0.015	0.69	30.45 ± 1.74	26.44 ± 3.68	38.99 ± 5.58	1560 ± 230	574 ± 64	4.65 ± 0.15
CC(C)c1nsc(NC(=O)N2C[C@H]3C[C@H](N(C)c4c(C#N)cnc5[nH]ccc45)C[C@H]3C2)n1 [Compound H30, (3aR,5s,6aS)-4-({2-[(3-isopropyl-1,2,4-thiadiazole-5-yl)carbamoyl]-hexahydrocyclopenta[c]pyrrole-5-yl}-methyl-amino)-1H-pyrrolo[2,3-b]pyridin-5-carbonitrile]	0.018	1.23	33.12 ± 1.38	43.43 ± 2.12	44.52 ± 4.37	923 ± 263	433 ± 16	2.47 ± 0.46
COc1nsc(NC(=O)N[C@H]2C[C@@H](N(C)c3c(C#N)cnc4[nH]ccc34)C2)n1 [Compound H29, (cis)-1-(3-((5-cyano-1H-pyrrolo[2,3-b]pyridin-4-yl)(methyl)amino)cyclobutyl)-3-(3-methoxy-1,2,4-thiadiazole-5-yl)urea]	0.016	0.87	33.03 ± 4.23	41.65 ± 2.21	40.10 ± 4.32	1530 ± 176	522 ± 23	4.43 ± 0.32
C[C@@H]1CCN(C(=O)CC#N)C[C@@H]1N(C)c1c(C#N)cnc2[nH]ccc12 [Compound H11, 4-{[(3R,4R)-1-(2-cyanoacetyl)-4-methylpiperidin-3-yl]-methyl-amino}-1H-pyrrolo[2,3-b]pyridin-5-carbonitrile]	0.013	0.68	30.22 ± 2.62	39.76 ± 1.20	40.25 ± 5.47	2620 ± 10	428 ± 32	8.53 ± 0.67
COc1nsc(NC(=O)N2C[C@H]3C[C@H](N(C)c4c(C#N)cnc5[nH]ccc45)C[C@H]3C2)n1 [Compound H07, (3aR,5s,6aS)-4-({2-[(3-methoxy-1,2,4-thiadiazole-5-yl)carbamoyl]-hexahydrocyclopenta[c]pyrrole-5-yl}-methyl-amino)-1H-pyrrolo[2,3-b]pyridin-5-carbonitrile]	0.024	0.073	37.02 ± 1.35	42.33 ± 2.20	41.24 ± 3.36	1920 ± 20	578 ± 43	4.62 ± 0.87
CN(c1c(C#N)cnc2[nH]ccc12)[C@H]1C[C@@H]2CN(C(=O)Nc3nc(OCC(C)(C)N)ns3)C[C@@H]2C1 [Compound H44, (3aR,5s,6aS)-5-((5-cyano-1H-pyrrolo[2,3-b]pyridin-4-yl)(methyl)amino)-N-(3-(2-amino-2-methyl-propoxy)-1,2,4-thiadiazole-5-yl)hexahydrocyclopentadiene[c]pyrrole-2(1H)-carboxamide]	0.014	0.73	31.03 ± 2.43	42.65 ± 2.21	41.56 ± 3.32	1680 ± 120	619 ± 39	4.17 ± 0.45
CCCS(=O)(=O)N[C@H]1C[C@@H](N(C)c2c(C#N)cnc3[nH]ccc23)C1 [Compound H14, (cis)-4-{[3-(propanesulfonamido)-cyclobutyl-1-yl]-methyl-amino}-1H-pyrrolo[2,3-b]pyridin-5-carbonitrile]	0.017	0.63	39.03 ± 4.53	40.65 ± 2.51	39.00 ± 4.25	915 ± 240	438 ± 24	2.11 ± 0.16
CN(c1c(C#N)cnc2[nH]ccc12)[C@H]1C[C@@H](NS(=O)(=O)CCC(F)(F)F)C1 [Compound H15, (cis)-4-{[3-(3,3,3-trifluoropropanesulfonamide)-cyclobutyl-1-yl]-methyl-amino}-1H-pyrrolo[2,3-b]pyridin-5-carbonitrile]	0.014	0.073	36.02 ± 1.37	43.33 ± 2.30	43.24 ± 4.36	1520 ± 241	518 ± 24	5.11 ± 0.16
CN(c1c(C#N)cnc2[nH]ccc12)[C@H]1C[C@@H]2CN(C(=O)Nc3ccc(Cl)c(C(F)(F)F)c3)C[C@@H]2C1 [Compound H25, (3aR,5s,6aS)-N-(4-chloro-3-(trifluoromethyl)phenyl)-5-((5-cyano-1H-pyrrolo[2,3-b]pyridin-4-yl)(methyl)amino)hexahydrocyclopentadiene[c]pyrrole-2(1H)-carboxamide]	0.02	0.73	37.45 ± 4.37	44.64 ± 3.68	44.66 ± 5.58	1270 ± 231	501 ± 17	4.67 ± 0.23
